Tested on: ethanol-responsive myoclonus (PHM, MD)
Test: Five-patient open-label trial of sodium oxybate, blinded UMRS (patients #1-3)
Type: in vivo, human
Conditions: for UMRS section 2 (myoclonus at rest) score: range 0-128; for UMRS section 1 (patient questionnaire) score: range 0-44; for UMRS section 6 (global disability score): range 0-4; for UMRS section 3 (stimulus sensitivity) score: range 0-17; for UMRS section 5 (functional tests) score: range 0-20, 0 gm score 20; for UMRS section 4 (myoclonus with action) score: range 0-160; for UMRS section 5 (functional tests, modified) score: range 0-28
Text: Five patients were enrolled in a trial from the Movement Disorders Division of Columbia University Medical Center during the fall of 2004. All patients were afflicted with hyperkinetic movement disorders that responded to ethanol (defined as a noticeable change to the patient), and all were refractory to treatment with conventional medications or could not tolerate them. The Medical Center's Institutional Review Board approved the trial, and written and verbal informed consent were obtained from all patients prior to enrollment.
The dose and timing of all other drugs were kept constant throughout the trial, and patients were not withdrawn from other medications. Patients #1-3 were examined and videotaped using the Unified Myoclonus Rating Scale (UMRS), and patients #4 and 5 were examined and videotaped using the Washington Heights Inwood Tremor Rating Scale (WHIGET) (see Appendix I). Frucht S. J., et al. Adv Neurol 89:361-76 (2002); Louis, E. D., et al. Mov Disord 16:89-93 (2001).
Side effects were defined as either minor or serious (leading to hospitalization) using good clinical practice standards (www.who.int/medicines/library/par/ggcp/GCPGuidePharmatrials), and patients were asked to report side effects at each visit. After initial examination and videotaping, patients were given 1 gm of sodium oxybate by mouth (2 ml of the standard 0.5 gm/ml solution dissolved in 60 ml of water). One hour later, the senior author repeated the examination and videotaping. […] After two weeks taking 2 gm twice daily, the procedure was repeated after a 3 gm office dose, and finally two weeks after receiving 3 gm twice daily, the procedure was repeated after a 4 gm office dose. The maximum dose allowed in the trial was 4 gm twice daily. Patients and the senior author determined at each visit whether or not to proceed to the next dose level, based principally on their ability to tolerate the most recent dose regimen. After deciding on a maximum tolerated dose, patients received a dose in the office 0.5 gm less and the examination was videotaped.
The entire videotape segments and patient-writing samples from each visit were copied, and were blinded to trial order and identifying features, and were randomly ordered for review using a random number table. A movement disorder expert blinded to trial design and dose schedule, scored each videotape. Sub-scores for each visit were calculated as described previously. Frucht S. J., et al. Adv Neurol 89:361-76 (2002). We modified section 5 of the UMRS in which functional performance (pouring water, using a soup spoon) is performed only with the dominant arm (section V). […] This increased the maximum score of section 5 of the UMRS from 20 to 28.

[1] = patient 1, listed as sodium oxybate, monosodium salt
[2] = patient 2, 2.5 gm, 0 gm score 4

SMILES: O=C([O-])CCCO.[Na+] [GHB, 4-hydroxybutanoic acid monosodium salt]
- UMRS section 2 (myoclonus at rest) score (patient 1 1 gm, 0 gm score 3): 3
- UMRS section 1 (patient questionnaire) score (patient 1 3 gm, 0 gm score 33): 31
- UMRS section 6 (global disability score) (patient 1, 1 gm, 0 gm score 4): 3
- UMRS section 3 (stimulus sensitivity) score (patient 1, 1 gm, 0 gm score 8): 3
- UMRS section 5 (functional tests) score (patient 1, 1 gm): 20
- UMRS section 4 (myoclonus with action) score (patient 1, 1 gm, 0 gm score 108): 96
- UMRS section 6 (global disability score) (patient 1, 2 gm, 0 gm score 4): 3
- UMRS section 3 (stimulus sensitivity) score (patient 1, 2 gm, 0 gm score 8): 1
- UMRS section 5 (functional tests) score (patient 1, 2 gm): 13
- UMRS section 2 (myoclonus at rest) score (patient 1, 2 gm, 0 gm score 3): 0
- UMRS section 4 (myoclonus with action) score (patient 1, 2 gm, 0 gm score 108): 64
- UMRS section 6 (global disability score) (patient 1, 2.5 gm, 0 gm score 4): 2
- UMRS section 3 (stimulus sensitivity) score (patient 1, 2.5 gm, 0 gm score 8): 2
- UMRS section 5 (functional tests) score (patient 1, 2.5 gm): 12
- UMRS section 2 (myoclonus at rest) score (patient 1, 2.5 gm, 0 gm score 3): 0
- UMRS section 4 (myoclonus with action) score (patient 1, 2.5 gm, 0 gm score 108): 54
- UMRS section 2 (myoclonus at rest) score (patient 1, 3 gm (asthma exacerbation visit), 0 gm score 3): 3
- UMRS section 6 (global disability score) (patient 1, 3 gm, 0 gm score 4): 3
- UMRS section 3 (stimulus sensitivity) score (patient 1, 3 gm, 0 gm score 8): 3
- UMRS section 5 (functional tests) score (patient 1, 3 gm): 15
- UMRS section 4 (myoclonus with action) score (patient 1, 3 gm, 0 gm score 108): 86
- Rx effect, UMRS section 4 (action myoclonus improved by) [1]: 50%
- Rx effect, UMRS section 5 (functional performance improved by) [1]: 40%
- Rx effect, UMRS section 4 (patient 2 (table b)): 88%
- UMRS section 6 (global disability score) (patient 2, 1 gm, 0 gm score 1): 1
- UMRS section 3 (stimulus sensitivity) score (patient 2, 1 gm, 0 gm score 4): 2
- UMRS section 5 (functional tests, modified) score (patient 2, 1 gm, 0 gm score 10): 8
- UMRS section 2 (myoclonus at rest) score (patient 2, 1 gm, 0 gm score 4): 2
- UMRS section 4 (myoclonus with action) score (patient 2, 1 gm, 0 gm score 25): 29
- UMRS section 6 (global disability score) (patient 2, 2 gm, 0 gm score 1): 1
- UMRS section 3 (stimulus sensitivity) score (patient 2, 2 gm, 0 gm score 4): 2
- UMRS section 5 (functional tests, modified) score (patient 2, 2 gm, 0 gm score 10): 4
- UMRS section 2 (myoclonus at rest) score (patient 2, 2 gm, 0 gm score 4): 3
- UMRS section 4 (myoclonus with action) score (patient 2, 2 gm, 0 gm score 25): 9
- UMRS section 6 (global disability score) (patient 2, 2.5 gm, 0 gm score 1): 1
- UMRS section 3 (stimulus sensitivity) score [2]: 0
- UMRS section 5 (functional tests, modified) score (patient 2, 2.5 gm, 0 gm score 10): 4
- UMRS section 2 (myoclonus at rest) score [2]: 0
- UMRS section 4 (myoclonus with action) score (patient 2, 2.5 gm, 0 gm score 25): 3
- UMRS section 6 (global disability score) (patient 2, 3 gm, 0 gm score 1): 1
- UMRS section 3 (stimulus sensitivity) score (patient 2, 3 gm, 0 gm score 4): 0
- UMRS section 5 (functional tests, modified) score (patient 2, 3 gm, 0 gm score 10): 5
- UMRS section 2 (myoclonus at rest) score (patient 2, 3 gm, 0 gm score 4): 0
- UMRS section 4 (myoclonus with action) score (patient 2, 3 gm, 0 gm score 25): 11
- Rx effect, UMRS section 5 (functional performance improved by) (patient 2, listed as sodium oxybate, monosodium salt): 60%
- Rx effect, UMRS section 4 (patient 3 (table c)): 57%
- UMRS section 6 (global disability score) (patient 3, 1 gm, 0 gm score 1): 1
- UMRS section 3 (stimulus sensitivity) score (patient 3, 1 gm, 0 gm score 6): 2
- UMRS section 5 (functional tests, modified) score (patient 3, 1 gm, 0 gm score 12): 13
- UMRS section 2 (myoclonus at rest) score (patient 3, 1 gm, 0 gm score 15): 13
- UMRS section 4 (myoclonus with action) score (patient 3, 1 gm, 0 gm score 35): 25
- UMRS section 6 (global disability score) (patient 3, 2 gm, 0 gm score 1): 1
- UMRS section 3 (stimulus sensitivity) score (patient 3, 2 gm, 0 gm score 6): 3
- UMRS section 5 (functional tests, modified) score (patient 3, 2 gm, 0 gm score 12): 9
- UMRS section 2 (myoclonus at rest) score (patient 3, 2 gm, 0 gm score 15): 15
- UMRS section 4 (myoclonus with action) score (patient 3, 2 gm, 0 gm score 35): 26
- UMRS section 6 (global disability score) (patient 3, 4 gm, 0 gm score 1): 1
- UMRS section 3 (stimulus sensitivity) score (patient 3, 4 gm, 0 gm score 6): 1
- UMRS section 5 (functional tests, modified) score (patient 3, 4 gm, 0 gm score 12): 12
- UMRS section 1 (patient questionnaire) score (patient 3, 4 gm, 0 gm score 10): 5
- UMRS section 2 (myoclonus at rest) score (patient 3, 4 gm, 0 gm score 15): 10
- UMRS section 4 (myoclonus with action) score (patient 3, 4 gm, 0 gm score 35): 15
- Rx effect, UMRS section 5 (functional performance improved by) (patient 3, listed as sodium oxybate, monosodium salt): 25%
- Patient self-assessment scores (patient #1): unchanged
- writing and control of spoon (patient #1, one hour after 2.5 gm): able to write (although slowly) and their control of the spoon was improved
- myoclonic jerks on writing, pouring, using a spoon (patient #2, after 3 gm): the amplitude and frequency of the jerks was diminished
- walking (patient #3, after 4 gm): modestly improved
- Patient self-assessment scores (patients #2 and 3): improved
- Physician global assessment scores (UMRS part 6) (patients #2 and 3, mild (1 out of 4) throughout): remained unchanged
- Action myoclonus (section 4) improved by (second of patients #1-3 'respectively' in the text (patient #2)): 57%
- Action myoclonus (section 4) improved by (third of patients #1-3 'respectively' in the text (patient #3)): 88%
